Data from a melting point compilation (Tetko et al.).

melting point [°C] | SMILES
169 to 171 | O=C(O)c1ccn(-c2ccc(Cl)cc2)n1
81 to 83 | O=[N+]([O-])c1cccc(Cl)c1S(=O)(=O)Cl
149 to 151 | COc1ccc(S(=O)(=O)Cl)cc1CC(=O)O
104 to 106 | Clc1ccc(-c2nnc(CNC3CC3)o2)cc1
97 to 99 | Cc1nccn1-c1cccc(F)n1
90 to 92 | c1ccc(CCCc2nnn[nH]2)cc1
199 to 201 | O=C(O)c1cnn2cc(Br)cnc12
273 to 275 | Nc1nnc(-c2ccc(Br)cc2)o1
136 to 138 | CNS(=O)(=O)c1ccc(Cl)c(C(=O)O)c1Cl
203 to 205 | N#Cc1ccc(-n2cncn2)nc1
158 to 160 | Cc1cc(C(=O)O)c(C)n1-c1cccc(Br)c1
110 to 112 | Cc1cccc(NC(=O)C=NO)c1C
124 to 126 | CCOC(=O)/C(C#N)=C\Nc1ccccc1CC
59 to 61 | CC(=O)N(CCC#N)C(C)C
189 to 191 | Cn1cc(C(N)=S)cn1
186 to 188 | Nc1cc(-c2ccc(I)cc2)[nH]n1
199 to 201 | Cc1[nH]c2ccccc2c1C(=O)C(=O)O
104 to 106 | CS(=O)(=O)c1cccc(NC(=O)CCl)c1
49 to 51 | CC(C)N1CCN(C2CCNCC2)CC1
132 to 134 | Nc1ccccc1-c1ncc[nH]1
164 to 166 | Fc1ccccc1-c1nnc2ccc(Cl)nn12
84 to 86 | O=C(CCCc1ccc(Br)cc1)c1ccccc1
183 to 185 | O=Cc1cnc(-c2ccc(Cl)cc2)nc1

melting point [°C] | SMILES
282 to 284 | O=C(O)c1ccc(-c2nnn[nH]2)cc1
152 to 154 | CS(=O)(=O)c1ccc(Oc2ccc(N)cc2)cc1
191 to 193 | CCN(CC)c1nc2sc(C(=O)O)cc2s1
74 to 76 | COC(=O)c1ccc(CBr)cc1F
114 to 116 | Cc1ccc(N)cc1C(=O)N(C)C
108 to 110 | CC(=O)CC(=O)Nc1cccc(Br)c1
126 to 128 | O=C(O)c1cccnc1S(=O)(=O)C(F)(F)F
56 to 59 | CC(C(=O)O)n1cc(Cl)cn1 (configuration not stated)
184 to 186 | COc1ccc(Nc2ccccc2C(=O)O)cc1
214 to 216 | CC1(c2ccccc2F)NC(=O)NC1=O (configuration not stated)
147 to 149 | CC1C(=O)NC(=O)N1c1ccccc1 (configuration not stated)
75 to 81 | Nc1cccc(NS(N)(=O)=O)c1
95 to 97 | Cc1nc2c(F)cccc2c(Cl)c1C
128 to 130 | CNCc1cn(C)c(=O)n(C)c1=O
189 to 191 | CSc1cc(C(=O)O)ccc1F
279 to 281 | Fc1cc(F)cc(-c2n[nH]c(S)n2)c1
71 to 73 | O=C(O)CC#Cc1ccccc1
104 to 106 | O=C(CCCl)Nc1ccccc1Br
115 to 117 | CCOC(=O)c1csc(NC)n1
85 to 87 | O=C(O)c1nc(OCC(F)(F)F)ccc1Cl
139 to 141 | O=Cc1c[nH]nc1-c1ccc(Cl)cc1
100 to 102 | Cc1cn2c(n1)CNCC2
168 to 170 | Cc1cc(C)c2cc(C(=O)O)[nH]c2c1

melting point [°C] | SMILES
181 to 183 | CCc1ccc(C(=O)O)cc1S(=O)(=O)Cl
114 to 116 | Cc1ccc(SCCNC(=O)CCl)cc1
96 to 98 | N#Cc1ccnc(-n2cccn2)c1
131 to 135 | COc1ccc(-c2cc(N)ccc2OC(F)F)cc1
188 to 190 | O=C(O)CC1Sc2ccccc2NC1=O (configuration not stated)
104 to 106 | O=C(O)c1ccnc(SCC(F)(F)F)c1
248 to 250 | Cc1cc(O)cc(=O)n1CC(=O)O
196 to 198 | CCOC(=O)Nc1cccc(C(=O)O)c1
74 to 76 | O=C(c1ccc(Cl)c([N+](=O)[O-])c1)N1CCCCC1
97 to 99 | CC(Cl)C(=O)Nc1ccc2c(c1)OCCCO2 (configuration not stated)
230 to 232 | NNc1cc(C(F)(F)F)nc2ncnn12
54 to 56 | CCCSc1nsc(N)n1
185 to 187 | NS(=O)(=O)c1ccc(Br)c([N+](=O)[O-])c1
109 to 111 | O=C(O)CNC(=O)C1CCCC1
72 to 74 | COC(=O)N1CCc2ccccc21
124 to 126 | NC(=S)c1cccnc1N
254 to 256 | O=C(COc1ccccc1)Nc1ccc(O)cc1C(=O)O
127 to 129 | CCc1ccc(N)c(C(=O)O)c1
79 to 81 | CC(=O)c1ccc(Oc2ccc(Br)cc2)cc1
54 to 56 | COC(=O)c1nscc1N
217 to 219 | Cc1ccc(-c2cn[nH]c2)cc1
173 to 175 | COc1ccc(CC(N)=O)cc1F
156 to 158 | CS(=O)(=O)Nc1cccc(CC(=O)O)c1

melting point [°C] | SMILES
194 to 196 | CC(=O)N1c2ccccc2C[C@H]1C(=O)O
103 to 105 | CS(=O)(=O)Cc1ccc(Cl)cc1S(=O)(=O)Cl
107 to 109 | CCC(Br)C(=O)c1ccc(NC(C)=O)cc1 (configuration not stated)
178 to 180 | Clc1nc(Br)n[nH]1
242 to 244 | O=C(O)c1cc(-c2ccc(Cl)s2)nc2ccccc12
153 to 155 | CCC(CO)NC(=O)c1ccc(N)cc1 (configuration not stated)
145 to 147 | NS(=O)(=O)c1ccc2c(c1)CCCO2
39 to 41 | Cc1ccc(S(=O)(=O)Cl)c(F)c1
49 to 51 | O=C(N=C=S)c1ccc(Cl)c(Cl)c1
185 to 187 | CN(C)c1cc2ccccc2c(=O)[nH]1
154 to 156 | Cn1cc(C#N)c(=O)n(C)c1=O
81 to 83 | CCOC(=O)c1sc(-c2ccc(F)c(F)c2)nc1C
135 to 137 | O=C(O)C(Oc1ccc(Br)cc1Cl)c1ccccc1 (configuration not stated)
107 to 108 | Nc1cc(F)c(F)cc1[N+](=O)[O-]
103 to 105 | COc1ccccc1NCC(=O)NN
29 to 31 | CCCc1nonc1N
173 to 175 | Nc1ccc(C=O)cc1[N+](=O)[O-]
145 to 147 | CCS(=O)(=O)Nc1ccccc1C(=O)O
53 to 55 | CCS(=O)(=O)c1ccc(Br)cc1
191 to 193 | Fc1ccc(-n2c(S)nc3ccccc32)c(F)c1
179 to 181 | Cc1cc(C(=O)O)nn1-c1ccccc1Cl
182 to 184 | Cc1[nH]c(-c2ccccn2)nc(=NN)c1C
218 to 220 | CC1CCc2[nH]c3ccc(C(=O)O)cc3c2C1 (configuration not stated)

melting point [°C] | SMILES
60 to 62 | S=C=Nc1cccc2ncccc12
249 to 251 | O=c1c2sccc2nc(S)n1Cc1ccccc1
152 to 155 | O=C(O)CSc1nnc(-c2ccco2)o1
251 to 253 | O=C(O)c1cc(Cl)c2c(c1)OCCO2
51 to 53 | COc1ccc(S(=O)(=O)Cl)cc1C
116 to 118 | CN(C)Cc1ccc(C(=O)NN)o1
110 to 112 | NC(=O)CCOc1ccc(N)cc1
61 to 63 | Cn1nc(-c2ccccc2)c(C=O)c1Cl
109 to 111 | Nc1nc(-c2ccco2)cs1
208 to 210 | O=C1CCSc2ccccc2N1
63 to 67 | OCc1cnn(-c2ccccc2)c1
117 to 119 | CC(C)(C)OC(=O)Nc1cc(N)c(F)cc1F
189 to 191 | Brc1cncc(-c2ncc[nH]2)c1
86 to 88 | COc1cc(Br)cc([N+](=O)[O-])c1
226 to 228 | NS(=O)(=O)c1ccc(Sc2ccccc2C(=O)O)cc1
188 to 190 | Nc1c(-c2cccs2)nc2ccccn12
76 to 78 | COc1cc(Cl)c(S(=O)(=O)Cl)cc1Cl
41 to 43 | NCc1cccnc1N1CCOCC1
110 to 112 | Cn1c(Cl)cnc1CO
64 to 66 | CC(C)(C)OC(=O)N1CCCC(C#N)C1 (configuration not stated)
154 to 156 | CNS(=O)(=O)c1cc(C(=O)O)c(C)o1
183 to 185 | CC(O)C(NS(=O)(=O)c1cccs1)C(=O)O (configuration not stated)
168 to 170 | Cc1nn(-c2ccc(F)cc2)c2[nH]nc(N)c12

melting point [°C] | SMILES
45 to 50 | CCc1cc(O)ccc1Cl
269 to 271 | O=c1[nH]c2ccc(C(F)(F)F)cc2c(=O)o1
113 to 115 | Nc1ccc(CCC(=O)O)nc1
149 to 151 | O=C(O)CCN1C(=O)CCc2cc(F)ccc21
235 to 237 | Cc1cc[nH]c(=O)c1C(N)=O
231 to 233 | Cc1nn(-c2ccc(Br)cc2)c(C)c1C(=O)O
118 to 120 | Cc1occc1-c1nnc(S)n1C
115 to 117 | NC(=O)c1ccc(CCl)c([N+](=O)[O-])c1
94 to 96 | CN(CC(=O)O)S(N)(=O)=O
140 to 142 | CCN(CC)S(=O)(=O)c1ccc(C)c(C(=O)O)c1
196 to 198 | Nc1noc(-c2ccsc2)n1
136 to 138 | Cc1ncsc1C(=O)NC1CCNCC1
244 to 246 | Oc1cccc(-c2nnc3n2CCCCC3)c1
65 to 67 | N#CCc1cnn(-c2ccccc2)n1
104 to 106 | Cc1cc(N2CCCC2=O)ccc1S(=O)(=O)Cl
84 to 86 | COC(=O)CCCCCNC(N)=S
71 to 73 | COC(=O)c1ccc2c(c1)CCCN2
285 to 287 | Cc1nc2cc(=O)[nH]n2c(C)c1CC(=O)O
56 to 58 | CC(C)(Cc1cccc(Cl)c1)C(=O)O
200 to 202 | O=C1NCCc2c1ccc(Cl)c2Cl
199 to 201 | O=C(O)c1cc(-c2cccs2)nc2ccccc12
90 to 95 | CC(=O)c1cccc(N2CCCC2=O)c1

SMILES | melting point [°C]
CCCn1nc(C)c(C(=O)O)c1C | 113 to 115
CCC(=O)CNC(=O)CCl | 81 to 83
CN1CCN(c2ccc(C#N)cn2)CC1 | 67 to 69
CC1CNC(=Nc2cccc3cccnc23)S1 (configuration not stated) | 92 to 94
NC(=O)N1CCc2cc(S(=O)(=O)F)ccc21 | 218 to 220
CCCn1cc(C(=O)O)c2ccccc21 | 155 to 157
Cc1[nH]c2ccccc2c1C1CCNCC1 | 222 to 224
c1nc(N2CCNCC2)c2sccc2n1 | 98 to 100
Cc1cc(N)n(C2CCN(C)CC2)n1 | 89 to 91
Cc1cc(N2CCNCC2)nc(C(C)C)n1 | 42 to 46
